Patent publication US8415469B2, “Compounds and methods for kinase modulation, and indications therefor” (Plexxikon Inc., priority 2005, dated 2013)
pIC50: −log10 of the molar value.

How the values were obtained:
Format in all cases: biochemical
FGFR1 = biological target: T1, FGFR1 (Homo sapiens, UniProt P11362, C488A/C584S); assay: AlphaScreen kinase assay, FGFR1; conditions: read-out: IC50, activity toward kinase FGFR
T1 construct: P1351.pET N6 BI-PTP FGFR A458-E765-X C488A, C584S; made in house; host or cells: E. coli (PTP1B co-expressed)

Jnk1 = biological target: T2, Jnk1 (Homo sapiens, UniProt P45983); assay: AlphaScreen kinase assay, Jnk1; conditions: read-out: IC50, activity toward kinase Jnk1
T2 construct: purchased Upstate Biotechnology

c-Raf-1 = biological target: T3, c-Raf-1 (Homo sapiens, UniProt P04049); assay: AlphaScreen kinase assay, c-Raf-1; conditions: read-out: IC50, activity toward kinase c-Raf-1
T3 construct: purchased Upstate Biotechnology

B-Raf = biological target: T4, B-Raf (Homo sapiens, UniProt P15056); assay: AlphaScreen kinase assay, B-Raf; conditions: read-out: IC50, activity toward kinase B-Raf
T4 construct: purchased Upstate Biotechnology

Flt1 = biological target: T5, Flt1 (Homo sapiens, UniProt P17948); assay: AlphaScreen kinase assay, Flt1; conditions: read-out: IC50, activity toward kinase Flt1
T5 construct: P1826.pETN6 BI-PTP FLT1 M799-D1165-X WT; His6 (N); made in house; host or cells: E. coli (PTP1B co-expressed)
T5 sequence (P17948 with tags, fused parts or gaps): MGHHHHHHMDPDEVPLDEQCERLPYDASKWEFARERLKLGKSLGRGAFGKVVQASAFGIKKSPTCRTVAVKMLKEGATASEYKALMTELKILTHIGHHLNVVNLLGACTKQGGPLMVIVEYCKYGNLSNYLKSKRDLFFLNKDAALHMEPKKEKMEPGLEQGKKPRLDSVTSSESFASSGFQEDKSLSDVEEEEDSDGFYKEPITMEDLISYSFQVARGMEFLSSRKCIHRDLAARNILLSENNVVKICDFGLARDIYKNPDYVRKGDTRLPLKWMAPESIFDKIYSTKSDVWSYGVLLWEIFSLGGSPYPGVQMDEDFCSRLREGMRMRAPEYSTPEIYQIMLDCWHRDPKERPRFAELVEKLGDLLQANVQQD

Fms = biological target: T6, Fms (Homo sapiens, UniProt P07333); assay: AlphaScreen kinase assay, Fms; conditions: read-out: IC50, activity toward kinase Fms
T6 construct: purchased Upstate Biotechnology

B-Raf V600E = biological target: T7, B-Raf V600E (Homo sapiens, UniProt P15056, V600E); assay: AlphaScreen kinase assay, B-Raf V600E; conditions: read-out: IC50, activity toward kinase B-Raf V600E
T7 construct: P4254. pFastBacBD-CDC37 BRAF D437-K722-X, V600E; His6 with pFastBac HT leader (TEV site) (N); made in house; host or cells: Sf9 (baculovirus; chaperone CDC37 co-expressed)

Jnk2 = biological target: T8, Jnk2 (Homo sapiens, UniProt P45984); assay: AlphaScreen kinase assay, Jnk2; conditions: read-out: IC50, activity toward kinase Jnk2
T8 construct: purchased Roche Protein Expression Group (Indianapolis, IN)
Method in brief: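 Inhibition reads as diminished acceptor emission, since unphosphorylated peptide fails to bridge antibody acceptor beads and streptavidin donor beads. Titration: eight points, 1:3 steps, stocks at 20 mM in DMSO.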

Jnk3 = biological target: T9, Jnk3 (Homo sapiens, UniProt P53779); assay: AlphaScreen kinase assay, Jnk3; conditions: read-out: IC50, activity toward kinase Jnk3
T9 construct: purchased Upstate Biotechnology
From the text: AlphaScreen assay was used to screen additional kinases. The assay is similarly dependent on the phosphorylation of a peptide substrate. In this assay, an antibody that recognizes phosphorylated substrate is bound to an acceptor bead. The peptide substrate is attached to biotin, which binds to a donor head that contains streptavidin. Thus phosphorylated substrate is bound by antibody and streptavidin, bringing the donor and acceptor heads into close proximity when kinase is not inhibited. The donor produces singlet oxygen which results in emission from the acceptor when they are in close proximity. Conversely, when kinase is inhibited, the donor and acceptor beads are not associated and the emission from the acceptor is reduced.
AlphaScreen assays were done using compounds dissolved in DMSO to a concentration of 20 mM. The compounds were diluted accordingly to the desired final concentrations in each sample well, using 1:3 serial dilution for a total of 8 concentration points. Plates were prepared such that each kinase reaction is 20 μl in 1× kinase buffer, 5% DMSO and 10 μM ATP. After incubation of the kinase reaction for 1 hour at room temperature, 5 μl of donor beads in stop buffer (50 mM EDTA in 1× kinase buffer) was added, the sample was mixed and incubated for 20 minutes at room temperature before adding 5 μl of acceptor beads in stop buffer. The samples were incubated for 60 minutes at room temperature and the signal per well was read on AlphaQuest reader.

Kit = biological target: T10, Kit (Homo sapiens, UniProt P10721); assay: AlphaScreen kinase assay, Kit; conditions: read-out: IC50, activity toward kinase Kit
T10 construct: P1332.N6 BI PTP KIT M552-K948-X COD; His6 (N); made in house; host or cells: E. coli (PTP1B co-expressed)

Pyk2 = biological target: T11, Pyk2 (Homo sapiens, UniProt Q14289); assay: AlphaScreen kinase assay, Pyk2; conditions: read-out: IC50, activity toward kinase Pyk2
T11 construct: purchased Upstate Biotechnology

Src = biological target: T12, Src (Homo sapiens, UniProt P12931); assay: AlphaScreen kinase assay, Src; conditions: read-out: IC50, activity toward kinase Src
T12 construct: P1144. pET-N6 BI-PTP SRC V86-L536-X; made in house

Fak = biological target: T13, Fak (Homo sapiens, UniProt Q05397); assay: AlphaScreen kinase assay, Fak; conditions: read-out: IC50, activity toward kinase Fak
T13 construct: P1358.pFastBacHtb FAK S411-Q686-X; His6 with pFastBacHTb leader (TEV site) (N); made in house; host or cells: Sf9 (baculovirus)

Kdr = biological target: T14, Kdr (Homo sapiens, UniProt P35968); assay: Z'-Lyte FRET kinase assay (Invitrogen), Kdr; conditions: read-out: IC50, activity toward kinase Kdr
T14 construct: purchased Invitrogen (assay run by Invitrogen)

Ret = biological target: T15, Ret (Homo sapiens, UniProt P07949); assay: AlphaScreen kinase assay, Ret; conditions: read-out: IC50, activity toward kinase Ret
T15 construct: P1378.pET-SF BI-PTP RET H661-R1012 HIS; made in house
T15 sequence (P07949 with tags, fused parts or gaps): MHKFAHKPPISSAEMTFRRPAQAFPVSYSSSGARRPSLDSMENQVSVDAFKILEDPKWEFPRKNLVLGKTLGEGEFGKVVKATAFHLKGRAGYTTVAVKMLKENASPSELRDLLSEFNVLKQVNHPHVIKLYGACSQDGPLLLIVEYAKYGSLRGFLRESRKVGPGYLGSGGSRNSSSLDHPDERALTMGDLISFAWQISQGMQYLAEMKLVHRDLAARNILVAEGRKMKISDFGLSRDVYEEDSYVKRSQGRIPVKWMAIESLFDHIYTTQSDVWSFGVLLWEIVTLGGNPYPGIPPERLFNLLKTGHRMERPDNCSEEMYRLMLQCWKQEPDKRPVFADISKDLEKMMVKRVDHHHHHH

Btk = biological target: T16, Btk (Homo sapiens, UniProt Q06187); assay: Z'-Lyte FRET kinase assay (Invitrogen), Btk; conditions: read-out: IC50, activity toward kinase Btk
T16 construct: purchased Invitrogen (assay run by Invitrogen)

Measured: pIC50

T6 sequence (P07333 20-972): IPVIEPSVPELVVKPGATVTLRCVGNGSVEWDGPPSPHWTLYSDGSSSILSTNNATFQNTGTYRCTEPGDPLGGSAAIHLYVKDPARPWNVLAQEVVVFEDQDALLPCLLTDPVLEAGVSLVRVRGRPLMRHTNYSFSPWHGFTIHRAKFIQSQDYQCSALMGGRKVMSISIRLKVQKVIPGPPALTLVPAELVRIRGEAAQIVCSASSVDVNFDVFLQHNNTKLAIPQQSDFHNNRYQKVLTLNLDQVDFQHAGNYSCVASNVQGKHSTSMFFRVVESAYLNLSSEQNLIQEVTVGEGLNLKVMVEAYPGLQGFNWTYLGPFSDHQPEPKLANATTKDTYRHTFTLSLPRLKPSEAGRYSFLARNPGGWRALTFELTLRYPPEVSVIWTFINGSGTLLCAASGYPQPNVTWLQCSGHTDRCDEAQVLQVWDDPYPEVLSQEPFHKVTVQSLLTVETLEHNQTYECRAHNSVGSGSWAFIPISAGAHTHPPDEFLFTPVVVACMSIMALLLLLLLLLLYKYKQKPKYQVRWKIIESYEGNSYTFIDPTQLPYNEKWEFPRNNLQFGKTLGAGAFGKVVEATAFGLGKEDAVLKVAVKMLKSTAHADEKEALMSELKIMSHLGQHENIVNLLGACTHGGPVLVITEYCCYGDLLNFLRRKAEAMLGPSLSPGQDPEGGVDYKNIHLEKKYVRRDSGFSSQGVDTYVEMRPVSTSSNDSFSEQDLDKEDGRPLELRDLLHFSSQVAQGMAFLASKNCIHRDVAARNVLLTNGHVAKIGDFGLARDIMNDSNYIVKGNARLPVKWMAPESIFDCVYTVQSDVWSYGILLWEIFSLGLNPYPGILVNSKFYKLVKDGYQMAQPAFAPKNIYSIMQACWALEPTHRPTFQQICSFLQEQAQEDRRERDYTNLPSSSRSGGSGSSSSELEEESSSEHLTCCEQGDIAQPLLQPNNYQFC
T10 sequence (P10721 with tags, fused parts or gaps): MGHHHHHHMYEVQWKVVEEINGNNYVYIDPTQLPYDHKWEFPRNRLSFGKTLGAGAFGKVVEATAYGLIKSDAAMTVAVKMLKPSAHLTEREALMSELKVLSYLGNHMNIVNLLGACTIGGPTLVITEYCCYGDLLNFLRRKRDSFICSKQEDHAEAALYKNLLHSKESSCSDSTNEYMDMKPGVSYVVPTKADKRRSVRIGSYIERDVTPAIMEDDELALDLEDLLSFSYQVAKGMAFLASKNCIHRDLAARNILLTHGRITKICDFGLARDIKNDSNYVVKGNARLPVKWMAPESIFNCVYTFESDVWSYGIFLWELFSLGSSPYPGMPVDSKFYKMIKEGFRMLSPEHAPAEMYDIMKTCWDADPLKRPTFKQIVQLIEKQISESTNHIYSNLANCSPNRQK
T1 sequence (P11362 458-765 C488A/C584S): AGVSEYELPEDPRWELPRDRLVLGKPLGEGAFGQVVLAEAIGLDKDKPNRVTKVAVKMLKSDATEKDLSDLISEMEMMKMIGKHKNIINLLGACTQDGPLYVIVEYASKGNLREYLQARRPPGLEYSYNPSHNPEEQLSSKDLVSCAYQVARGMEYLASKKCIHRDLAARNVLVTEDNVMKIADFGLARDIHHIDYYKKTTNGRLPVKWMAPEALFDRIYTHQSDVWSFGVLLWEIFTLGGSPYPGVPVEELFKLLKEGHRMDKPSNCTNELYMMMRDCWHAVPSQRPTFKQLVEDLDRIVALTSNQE
T9 sequence (P53779 whole entry): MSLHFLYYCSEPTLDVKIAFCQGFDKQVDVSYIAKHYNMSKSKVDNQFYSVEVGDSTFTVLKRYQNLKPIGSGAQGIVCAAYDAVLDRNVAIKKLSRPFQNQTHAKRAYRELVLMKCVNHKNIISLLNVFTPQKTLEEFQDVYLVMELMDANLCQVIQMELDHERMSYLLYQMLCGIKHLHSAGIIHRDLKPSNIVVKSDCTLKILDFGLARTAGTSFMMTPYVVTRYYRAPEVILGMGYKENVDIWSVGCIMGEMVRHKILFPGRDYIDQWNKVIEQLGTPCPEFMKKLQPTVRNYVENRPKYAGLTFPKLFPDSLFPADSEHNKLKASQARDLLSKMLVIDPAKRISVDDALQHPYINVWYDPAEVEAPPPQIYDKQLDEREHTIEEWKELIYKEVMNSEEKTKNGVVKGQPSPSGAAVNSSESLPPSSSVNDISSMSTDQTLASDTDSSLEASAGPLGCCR
T12 sequence (P12931 with tags, fused parts or gaps): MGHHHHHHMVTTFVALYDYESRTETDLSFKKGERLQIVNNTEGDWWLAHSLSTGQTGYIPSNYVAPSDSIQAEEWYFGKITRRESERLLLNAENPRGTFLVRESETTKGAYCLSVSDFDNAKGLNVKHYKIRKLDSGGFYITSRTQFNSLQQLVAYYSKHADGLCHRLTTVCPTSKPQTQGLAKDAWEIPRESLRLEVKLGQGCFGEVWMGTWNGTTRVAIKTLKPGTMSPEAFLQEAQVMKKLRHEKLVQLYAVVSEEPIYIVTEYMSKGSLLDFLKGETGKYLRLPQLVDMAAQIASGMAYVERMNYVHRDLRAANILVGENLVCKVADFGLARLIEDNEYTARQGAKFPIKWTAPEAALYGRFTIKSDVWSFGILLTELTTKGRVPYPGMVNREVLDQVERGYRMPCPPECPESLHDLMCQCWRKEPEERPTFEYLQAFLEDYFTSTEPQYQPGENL
T2 sequence (P45983 whole entry): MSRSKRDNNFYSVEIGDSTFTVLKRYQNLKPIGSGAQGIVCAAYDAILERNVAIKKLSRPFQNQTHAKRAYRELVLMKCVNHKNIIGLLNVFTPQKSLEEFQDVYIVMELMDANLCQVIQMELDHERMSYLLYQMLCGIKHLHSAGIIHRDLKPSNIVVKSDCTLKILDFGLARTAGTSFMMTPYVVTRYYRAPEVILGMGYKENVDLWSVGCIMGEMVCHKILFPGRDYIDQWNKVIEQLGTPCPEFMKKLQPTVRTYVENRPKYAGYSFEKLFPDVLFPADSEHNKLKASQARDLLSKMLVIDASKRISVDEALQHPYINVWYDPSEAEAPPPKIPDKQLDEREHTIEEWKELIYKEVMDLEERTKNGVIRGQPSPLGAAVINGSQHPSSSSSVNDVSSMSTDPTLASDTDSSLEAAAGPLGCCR
T11 sequence (Q14289 whole entry): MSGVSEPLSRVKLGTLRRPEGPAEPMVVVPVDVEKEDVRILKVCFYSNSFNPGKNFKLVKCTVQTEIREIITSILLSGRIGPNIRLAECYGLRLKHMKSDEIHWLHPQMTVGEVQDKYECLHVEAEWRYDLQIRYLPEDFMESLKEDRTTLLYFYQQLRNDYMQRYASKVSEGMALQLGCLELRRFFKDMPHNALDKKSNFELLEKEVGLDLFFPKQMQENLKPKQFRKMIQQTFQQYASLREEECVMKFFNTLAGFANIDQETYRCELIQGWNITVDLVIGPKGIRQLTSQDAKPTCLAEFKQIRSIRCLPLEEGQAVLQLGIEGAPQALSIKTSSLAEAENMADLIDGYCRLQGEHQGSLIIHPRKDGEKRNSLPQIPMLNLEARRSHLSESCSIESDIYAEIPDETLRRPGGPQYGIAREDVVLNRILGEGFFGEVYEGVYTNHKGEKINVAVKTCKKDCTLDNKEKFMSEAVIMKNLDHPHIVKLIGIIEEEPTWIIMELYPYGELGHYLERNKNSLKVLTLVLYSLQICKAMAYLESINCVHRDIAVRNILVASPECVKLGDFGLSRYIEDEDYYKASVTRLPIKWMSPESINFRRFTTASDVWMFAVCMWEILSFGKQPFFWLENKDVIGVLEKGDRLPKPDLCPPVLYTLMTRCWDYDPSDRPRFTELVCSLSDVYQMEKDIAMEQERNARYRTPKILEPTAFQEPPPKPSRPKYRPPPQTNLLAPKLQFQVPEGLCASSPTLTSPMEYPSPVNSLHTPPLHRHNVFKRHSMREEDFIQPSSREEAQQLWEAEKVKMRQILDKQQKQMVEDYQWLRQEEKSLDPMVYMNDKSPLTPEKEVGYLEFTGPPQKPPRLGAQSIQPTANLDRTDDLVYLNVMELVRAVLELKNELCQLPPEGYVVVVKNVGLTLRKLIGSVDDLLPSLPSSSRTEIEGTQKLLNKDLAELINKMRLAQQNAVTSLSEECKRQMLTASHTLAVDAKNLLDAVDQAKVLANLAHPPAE
T8 sequence (P45984 whole entry): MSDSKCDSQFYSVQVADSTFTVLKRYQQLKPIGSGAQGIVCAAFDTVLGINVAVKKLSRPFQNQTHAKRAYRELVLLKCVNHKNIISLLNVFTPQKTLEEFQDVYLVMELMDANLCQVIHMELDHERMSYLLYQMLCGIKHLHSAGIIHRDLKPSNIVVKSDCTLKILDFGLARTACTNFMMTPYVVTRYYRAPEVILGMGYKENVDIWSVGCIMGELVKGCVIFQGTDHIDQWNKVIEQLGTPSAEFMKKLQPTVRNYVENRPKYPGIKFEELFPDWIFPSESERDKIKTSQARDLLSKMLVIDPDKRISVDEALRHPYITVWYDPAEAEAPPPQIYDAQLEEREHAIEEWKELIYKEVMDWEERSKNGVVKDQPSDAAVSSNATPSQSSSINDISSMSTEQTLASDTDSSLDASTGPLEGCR
T13 sequence (Q05397 411-686): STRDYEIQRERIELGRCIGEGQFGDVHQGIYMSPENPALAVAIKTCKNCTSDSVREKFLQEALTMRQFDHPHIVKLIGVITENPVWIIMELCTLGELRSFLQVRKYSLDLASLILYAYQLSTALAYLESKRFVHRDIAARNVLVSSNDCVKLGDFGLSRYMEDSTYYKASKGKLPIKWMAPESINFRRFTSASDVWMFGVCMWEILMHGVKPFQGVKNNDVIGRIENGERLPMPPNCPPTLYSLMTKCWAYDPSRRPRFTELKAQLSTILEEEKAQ

CCCS(=O)(=O)Nc1ccc(F)c(C(=O)c2c[nH]c3ncc(-c4ccc(C(=O)N(C)C)cc4)cc23)c1F [Compound P-1547, 4-{3-[2,6-Difluoro-3-(propane-1-sulfonylamino)-benzoyl]-1H-pyrrolo[2,3-b]pyridin-5-yl}-N,N-dimethyl-benzamide]
not listed: Pyk2 | Src | Fak | Kdr | Ret | Btk
≥ 5.00: all other assays above

CC(=O)Nc1ccc(F)c(C(O)c2c[nH]c3ncc(-c4cccnc4)cc23)c1F (stereo not drawn) [Compound P-1069]
≥ 5.00: B-Raf V600E | Pyk2

Cc1cc(Nc2ccc3cc[nH]c3n2)no1 [Compound P-1376, (5-Methyl-isoxazol-3-yl)-(1H-pyrrolo[2,3-b]pyridin-6-yl)-amine]
≥ 5.00: Fms | Pyk2 | Kit

CCCS(=O)(=O)Nc1ccc(F)c(C(=O)c2c[nH]c3ncc(-c4cnn(C)c4)cc23)c1F [Compound P-1864, Propane-1-sulfonic acid {2,4-difluoro-3-[5-(1-methyl-1H-pyrazol-4-yl)-1H-pyrrolo[2,3-b]pyridine-3-carbonyl]-phenyl}-amide]
≥ 5.00: Jnk1 | c-Raf-1 | B-Raf | Fms | B-Raf V600E | Jnk2 | Jnk3 | Kit

CCCCNC(=O)Nc1cccc(C(=O)c2c[nH]c3ncc(-c4cccnc4)cc23)c1 [Compound P-1445, 1-Butyl-3-[3-(5-pyridin-3-yl-1H-pyrrolo[2,3-b]pyridine-3-carbonyl)-phenyl]-urea]
not listed: c-Raf-1 | Pyk2 | Kdr | Ret | Btk
≥ 5.00: all other assays above

CCCC(=O)Nc1ccc(F)c(C(O)c2c[nH]c3ncc(OC)cc23)c1F (stereo not drawn) [Compound P-1367]
≥ 5.00: FGFR1 | Pyk2 | Kit

CS(=O)(=O)Nc1ccc(F)c(C(=O)c2c[nH]c3ncc(-c4ccccc4)cc23)c1 [Compound P-0308, N-[4-Fluoro-3-(5-phenyl-1H-pyrrolo[2,3-b]pyridine-3-carbonyl)-phenyl]-methanesulfonamide]
≥ 5.00: FGFR1 | Jnk1 | Kdr | Ret | B-Raf V600E | Jnk2 | Jnk3

O=C(NCc1ccccc1)Nc1cccc(C(=O)c2c[nH]c3ncc(-c4cccnc4)cc23)c1 [Compound P-1554, 1-Benzyl-3-[3-(5-pyridin-3-yl-1H-pyrrolo[2,3-b]pyridine-3-carbonyl)-phenyl]-urea]
≥ 5.00: FGFR1 | Jnk1 | B-Raf | Flt1 | Fms | B-Raf V600E | Jnk2 | Jnk3 | Kit

CCCCNC(=O)n1ccc2c(C(=O)c3c[nH]c4ncc(-c5cccnc5)cc34)cccc21 [Compound P-1486, 4-(5-Pyridin-3-yl-1H-pyrrolo[2,3-b]pyridine-3-carbonyl)-indole-1-carboxylic acid butylamide]
not listed: c-Raf-1 | Pyk2 | Kdr | Ret
≥ 5.00: all other assays above

Brc1cnc2[nH]cc(Cc3ccccc3OCc3ccccc3)c2c1 [Compound P-1379]
≥ 5.00: Pyk2

CCCC(=O)Nc1ccc(F)c(C(OC)c2c[nH]c3ncc(OC)cc23)c1F (stereo not drawn) [Compound P-1368]
≥ 5.00: Fms | B-Raf V600E | Pyk2 | Kit

OC(c1ccccc1OCc1ccccc1)c1c[nH]c2ncc(Br)cc12 (stereo not drawn) [Compound P-1380]
≥ 5.00: FGFR1 | Fms | Pyk2 | Kit

CCCCNC(=O)Nc1cccc(Cc2c[nH]c3ncc(-c4cccnc4)cc23)c1 [Compound P-1447, 1-butyl-3-[3-(5-pyridin-3-yl-1H-pyrrolo[2,3-b]pyridin-3-ylmethyl)-phenyl]-urea]
not listed: c-Raf-1 | Pyk2 | Kdr | Ret | Btk
≥ 5.00: all other assays above

CCCNC(=O)Nc1ccc(F)c(C(=O)c2c[nH]c3ncc(-c4cccnc4)cc23)c1F [Compound P-0774, 1-[2,4-difluoro-3-(5-pyridin-3-yl-1H-pyrrolo[2,3-b]pyridine-3-carbonyl)-phenyl]-3-propyl-urea]
not listed: Pyk2 | Kdr | Ret | Btk
≥ 5.00: all other assays above

NC(=O)c1cccc(-c2cnc3[nH]cc(Cc4ccccc4OCc4ccccc4)c3c2)c1 [Compound P-1381]
≥ 5.00: FGFR1 | Fms | B-Raf V600E | Pyk2

CC(=O)c1cccc(-c2ccnc3[nH]ccc23)c1 [Compound P-0116]
≥ 5.00: Ret | Pyk2

CCCS(=O)(=O)Nc1ccc(F)c(C(=O)c2c[nH]c3ncc(-c4ccc(C(=O)N5CCOCC5)cc4)cc23)c1F [Compound P-1548, Propane-1-sulfonic acid (2,4-difluoro-3-{5-[4-(morpholine-4-carbonyl)-phenyl]-1H-pyrrolo[2,3]-pyridine-3-carbonyl}-phenyl)-amide]
≥ 5.00: FGFR1 | Jnk1 | B-Raf | Flt1 | Fms | B-Raf V600E | Jnk2 | Jnk3 | Kit

c1ccc(N2CCOCC2)c(Nc2ccc3cc[nH]c3n2)c1 [Compound P-1377, (2-Morpholin-4-yl-phenyl)-(1H-pyrrolo[2,3-b]pyridin-6-yl)-amine]
≥ 5.00: FGFR1 | Pyk2
